Here are results for five molecules from patent US5587509A, “Caged caboxyl compounds and use thereof” (Cornell Research Foundation, Inc., priority 1995, dated 1996).

Like-named read-outs stand apart in the source and are kept apart here.

One data set has as its system acetylcholine receptor. Particulars: Milburn et al.; cited from earlier work.
The conditions of data set [1]: cited from earlier work.
Data set [2] can be described thus: laser-pulse photolysis, transient absorbance (photolysis speed and product quantum yield). The data set is classed as physicochemical. As to the method:
(§1) To evaluate the photolysis characteristics of the 2-methoxy-5-nitro glycine ester of Example I, laser pulse photolysis was performed and the results thereof are shown in FIG. 2 by the rapid absorbance jump produced by the photolysis of the ester. The light source used to initiate the photolysis reaction was a Lumonics TE861M excimer laser. The lasing medium was either 2% N2 in helium, which produced a primary energy of 6 mJ at 337 nm with a 4 ns pulse width, or a XeCl mix that produced 70 rnJ at 308 nm in 6 ns pulses. For cell photolysis, the 337 nm light was delivered to the microscope stage for use in whole-cell recording measurements with a 300 μm core optical fiber (FiberGuide Industries); 10% of the primary energy was typically coupled through the fiber to the cell preparation. Rapid absorbance changes of caged compound solutions were measured with a transient absorbance spectrophotometer in which 308 nm light from the primary output of the laser was focussed into a 2×2 mm quartz cuvet and the absorbance changes produced were monitored at right angles to the laser beam with a single beam transient spectrophotometer whose signal transfer parameters effectively produced 500 kHz filtering of the rapid absorbance jump. The photocurrent was amplified with a Thorn EMI model Al preamplifier, which also acted as a low pass filter with cutoff dependent on the amplification selected; the cutoff frequencies were between 50 KHz and 50 MHz. The rapid absorbance jump produced in the caged ester solution by single laser flashes could be digitized at up to 2 MHz with a digital oscilloscope and in each case the preamplifier filtering was matched to the digitization rate of the data collection. Measurements of the pulsed UV light energy for quantum yield determinations were made with a Gentec ED200 calibrated thermopile.
Absorbance measurements of the fast jump were made over the range 350 to 450 nm and the resulting profile matched the absorbance spectrum of the expected 2-methoxy-5-nitrophenol. Measurements of triplet quenching in the reaction of 2-methoxy-5-nitrophenyl acetate by Kuzmic et al. (supra) indicate that the lifetime of the photohydrolysis reaction is 0.15 μs. The maximum time resolution of the transient absorbance measurements in our study is 0.5 μs.
The product quantum yield from photolysis of the caged glycine was estimated by comparison to the photolysis of 2-methoxy-5-nitrophenyl acetate, which was used as an actinometric standard. A quantum yield of 0.22 was found for a 1 mM solution of 2-methoxy-5-nitrophenyl acetate in 100 mM phosphate buffer at pH 7.0 that also contained 20% acetonitrile to substituted for caged glycine.

Data set [3] relates to glycine receptor channels. Put plainly: whole-cell current recording, cell-flow with mixer (effect of the caged compound or photoproduct on glycine receptor channels). The class given is cell-based, mouse. To be noted: for effect on glycine receptors or their response to glycine: mouse cerebral cortical neurons, pH 7.1. As for the experimental part: (§2) Whole-cell current recording was performed as follows. The preparation of embryonic mouse cortical cells was as described by Geetha et al. (Biochemistry 31:5488-5499 (1992)). The extracellular recording buffer was 145 mM NaCl, 1.8 MM MgCl2, 1 mM CaCl2 and 10 mM Hepes (pH 7.4) and the intracellular buffer was 145 mM CsCl, 1 mM CaCl2, 10 mM EGTA [ethyleneglycol-bis-(beta-aminoethyl ether) N,N,N',N'-tetraacetic acid] and 10 mM Hepes (pH 7.2) The flow method used to equilibrate receptors on the surface of a single cell with ligands within 10 ms has been described by Udgaonkar et al (Proc. Natl. Acad. Sci. USA, 84:8758-8762 (1987)). The whole-cell current responses were determined in mouse cortical neurons, pH […], room temperature (22° C.). Caged glycine solutions at pH 4.0 in extracellular buffer but containing only 5 mM Hepes were mixed in 1:1 proportions with extracellular recording buffer containing 20 mM Hepes at pH 7.4 using a low volume T-tube mixer before the solutions entered the U-tube that delivered the solution stream at pH 7.1 to the cell at a linear flow rate of 0.5 cm s^-1. The whole-cell current due to opening of glycine receptor channels was recorded using the technique of Hamill et al. (Pflugers Arch, 391:85-100 (1981)). All other details of the cell-flow technique, and the combination of the cell-flow technique with the laser-pulse photolysis technique in which the whole-cell current is measured after photolysis of caged neurotransmitter, were as described by Matsubara et al (Biochemistry, 31:5507-5514 (1992)). Hydrolysis of the caged glycine before it was applied to a cell was prevented by the mixer strategy.
Specifically, the caged glycine solution with and without free glycine at pH 4.0 was rapidly mixed with extracellular buffer to produce a solution of pH 7.1 before flowing it over the cell. A control solution of 85 μM free glycine (170 μM glycine in extracellular buffer mixed with pH 4 buffer used to stabilize the ester) is shown by the solid trace in FIG. 3. […] Identical current responses were obtained when 170 μM glycine in pH 7.4 buffer was mixed with pH 4 buffer when the solutions were altemately applied from the two different supply lines of the mixer (data not shown).

Data set [4] is described as follows: spontaneous hydrolysis in buffer followed spectrophotometrically. The class given is physicochemical. As for the experimental part:
A 1.1 mM solution of the caged glycine of Example I was prepared in extracellular recording buffer at pH 7.1. […] The caged glycine ester was rapidly dissolved in buffers to produce approximately 800 μM solutions of the caged compound and immediately transferred to a 2×2 cuvette in a Hewlett Packard model 8452A diode array spectrophotometer set up to collect spectra at timed intervals. The initial rates of the hydrolysis reaction were obtained from absorbance measurements at 310, 360 and 384 nm after subtraction of the absorbance of the completely hydrolyzed solution. The spectra of the fully hydrolyzed solutions were identical in all cases to reference spectra of 2-methoxy-5-nitrophenol at the different pH values. The upper trace at 310 nm represents the spectrum of the compound before hydrolysis. The lower trace at 310 nm corresponds to the fully hydrolyzed material and matches the spectrum of 2-methoxy-5-nitrophenol at pH 7.0. The spectra were acquired at 0, 1, 2, 3, 4, 6, 8, 11 and 60 min after the initial rapid dissolution in buffer. All measurements were performed at room temperature (22°-24° C.).

Data set [5] relates to glycine receptor channels. Put plainly: whole-cell current after laser-pulse photolysis of caged glycine (cell-flow laser-pulse photolysis). Particulars: for rate of rising phase of whole-cell current: 700 μM caged compound, pH 7.1. The data set is classed as cell-based, mouse. As to the method:
as §1
as §2, with “strategy. […]” for “strategy.”

In the case of `C[N+](C)(C)CCOC(=O)NC(C(=O)O)c1ccccc1[N+](=O)[O-]` (stereo not shown) [caged carbamoylcholine], the “biological activity before photolysis” value in the data set on acetylcholine receptor was “biologically inert”. The “time to liberate carbamoylcholine by a laser pulse” value in data set [1] (laser pulse, Milburn et al.) is given as at most 120 μs. Also, the “photolysis t1/2” value in data set [1] (photolysis to carbamoylcholine, Milburn et al.) is 40 μs.
For `O=C(O)CNC(C(=O)O)c1ccccc1[N+](=O)[O-]` (stereo not shown) [N-(.varies.-carboxy-2-nitrobenzyl)glycine], the product quantum yield in data set [1] (Billington et al.) is 0.02. Also, the “photolysis time constant τ” value in data set [1] (pH 7.5, Billington et al.) is listed as 1.6 ms.
With `COc1ccc([N+](=O)[O-])cc1OC(C)=O` [2-methoxy-5-nitrophenyl acetate, reference compound], the quantum yield in data set [2] (1 mM solution in 100 mM phosphate buffer at pH 7.0 with 20% acetonitrile, actinometric standard) came out at 0.22. The “lifetime of the photohydrolysis reaction” value in data set [1] (triplet quenching measurements, Kuzmic et al.) is 0.15 μs.
With `COc1ccc([N+](=O)[O-])cc1OC(=O)CN` [caged glycine, 2-Methoxy-5-nitrophenyl glycine ester], the “speed of absorbance jump on photolysis with 337 nm light” value in data set [2] (337 nm versus 308 nm light, excimer laser) was “as fast as the one induced by 308 nm light”. The “product quantum yield from photolysis” value in data set [2] (caged glycine, estimated by comparison to 2-methoxy-5-nitrophenyl acetate as actinometric standard) was 0.2. In addition, the “time within which caged glycine is photolyzed / converted to products” value in data set [2] (laser pulse, absorbance change at 380 nm, b60: 308 or 337 nm) is at most 3 μs. Also, the “effect of caged glycine on current response to free glycine” value in data set [3] (170 μM glycine mixed 1:1 with 1.1 mM caged glycine ester in pH 4 buffer, versus control 85 μM free glycine) is given as “An identical response was produced”. Besides, the “activation of whole cell current by caged glycine” value in data set [3] (caged glycine at pH 4.0 mixed with external buffer, final pH 7.1, -40 mV, 22° C., mouse cortical neurons) is “did not activate any whole cell current”. In addition, the “effect on glycine receptors or their response to glycine” value in data set [3] is given as “Neither the caged compound nor the 2-methoxy-5-nitrophenol photolysis product affected the glycine receptors or modified their response to glycine”. Also, in data set [3] (mouse cortical neurons, pH 7.1, -40 mV), the “inhibition or activation by caged glycine” value is given as “no observable inhibition or activation”. Also, the half-life in data set [4] (buffer, pH 4, pH 4.0, read-out: time constant τ for hydrolysis (converted)) was about 180 min; in data set [4] (hepes buffer, pH 7.1, pH 7.1 (neutral pH, Hepes buffered solution), room temperature (22-24° C.), absorbance at 310 nm, read-out: time constant of spontaneous hydrolysis) it was 6.1 min. Also, the “time thawed pH 4 solution could be used without detectable glycine currents in the preincubation baseline” value in data set [5] (frozen aliquots of freshly prepared caged glycine pH 4 solution, thawed before application with the mixer) is listed as “up to 20 min”. Besides, the “opening of glycine receptor channels on irradiation” value in data set [5] (laser pulse at 337 nm, mouse cerebral cortical neurons equilibrated with caged glycine) is reported as “glycine receptor channels were opened”. The “rate of rising phase of whole-cell current” value in data set [5] (lowest trace, 10 μm (so in the source) glycine released by photolysis) worked out at 42 s⁻¹; in data set [5] (middle trace, 18 μM glycine released by photolysis), 40 s⁻¹; in data set [5] (upper trace, 35 μM free glycine released by photolysis), 54 s⁻¹.
For `COc1ccc([N+](=O)[O-])cc1O` [2-methoxy-5-nitrophenol], the “effect on glycine receptors or their response to glycine” value in data set [3] is on record as “Neither the caged compound nor the 2-methoxy-5-nitrophenol photolysis product affected the glycine receptors or modified their response to glycine”.
